Results reported in patent publication US8481525B2, “Kinase inhibitors and method of treating cancer with same” (University of Health Network, priority 2009, dated 2013).
Where two headings read alike, the source gives them in different places.

Assays:
Aurora A = biological target: T1, Aurora A (Homo sapiens, UniProt O14965); experiment: Aurora A Inhibition Assay (Z-Lyte); format: biochemical; conditions: read-out: Aurora A relative inhibition percentage at a dose of 1 μM
T1 construct: purchased Invitrogen PV3612
T1 sequence (O14965 1-403): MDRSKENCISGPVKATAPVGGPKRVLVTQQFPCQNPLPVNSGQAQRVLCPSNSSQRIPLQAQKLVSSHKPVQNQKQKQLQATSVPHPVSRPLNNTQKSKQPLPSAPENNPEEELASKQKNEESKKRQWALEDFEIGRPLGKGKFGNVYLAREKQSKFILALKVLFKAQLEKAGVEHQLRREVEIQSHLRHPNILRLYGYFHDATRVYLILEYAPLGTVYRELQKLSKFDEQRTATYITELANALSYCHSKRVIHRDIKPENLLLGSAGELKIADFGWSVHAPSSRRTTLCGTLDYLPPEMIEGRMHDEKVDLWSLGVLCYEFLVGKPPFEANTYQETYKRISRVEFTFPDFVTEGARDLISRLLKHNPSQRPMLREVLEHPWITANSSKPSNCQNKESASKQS
Procedure: Aurora A inhibition was determined using the Z-Lyte assay kit from Invitrogen. The assay was performed using the recommended manufacturer's instructions with 20 μM ATP and 12 nM Aurora A (Invitrogen cat # PV3612). The % inhibition values were determined according to the manufacturer's directions and IC50 values were obtained using a non-linear 4 point logistic curve fit (XLfit4, IDBS)

[1] = system: MCF-7 luminal breast cancer cell line; experiment: Cell growth inhibition, Sulforhodamine B assay (SRB); format: cell-based; conditions: Homo sapiens, MCF7, 120 h; MCF-7 luminal breast cancer cell line; 5 days culture; SRB; read-out: Cell Line GI50 Range MCF-7
Procedure: (§1) The cells were cultured for 5 days before the Sulforhodamine B assay (SRB) was performed to determine the compound's cell growth inhibition activity.
(§2) Sulforhodamine B (purchased from Sigma, Oakville, ON, Canada) is a water-soluble dye that binds to the basic amino acids of the cellular proteins. Thus, colorimetric measurement of the bound dye provides an estimate of the total protein mass that is related to the cell number. the cells are fixed in situ by gently aspirating off the culture media and adding 50 μl ice cold 10% Trichloroacetic Acid (TCA) per well and incubate at 4° C. for 30-60 min, The plates are washed with water five times and allowed to air dry for 5 min. […] Following staining, plates are washed four times with 1% acetic acid to remove unbound dye and then allowed to air dry for 5 min. […] Absorbance is read at 570 nm.
(§3) The percentage (%) of relative growth inhibition was calculated by comparing to DMSO treated only cells (100%). GI50's were determined for compounds with cytotoxic activity. The GI50 was calculated using GraphPad PRISM software (GraphPad Software, Inc., San Diego, Calif., USA).

[2] = system: A549 lung cancer cell line; experiment: as above; format: cell-based; conditions: Homo sapiens, 120 h; A549 lung cancer cell line; 5 days culture; SRB; read-out: Cell Line GI50 Range A-549
Procedure: as §1, §2, §3

[3] = system: SW620 colon cancer cell line; experiment: as above; format: cell-based; conditions: Homo sapiens, SW-620, 120 h; SW620 colon cancer cell line; 5 days culture; SRB; read-out: Cell Line GI50 Range SW-620
Procedure: as §1, §2, §3

[4] = system: MDA-MB-468 basal breast cancer cell line; experiment: as above; format: cell-based; conditions: Homo sapiens, 120 h; MDA-MB-468 basal breast cancer cell line; 5 days culture; SRB; read-out: Cell Line GI50 Range MDA-MB-468
Procedure: as §1, §2, §3

[5] = system: HCC1954 basal breast cancer cell line; experiment: as above; format: cell-based; conditions: Homo sapiens, HCC1954 basal breast cancer cell line, 5 days culture, SRB, read-out: Cell Line GI50 Range HCC-1954
Procedure: as §1, §2, §3

human PLK4 = biological target: T2, human PLK4 (Homo sapiens, UniProt O00444); experiment: PLK4 Inhibition Assay (indirect ELISA); format: biochemical
T2 construct: amino terminal GST fusion of residues 1-391 of human PLK4; made in house; host or cells: E. coli
T2 sequence (O00444 1-391): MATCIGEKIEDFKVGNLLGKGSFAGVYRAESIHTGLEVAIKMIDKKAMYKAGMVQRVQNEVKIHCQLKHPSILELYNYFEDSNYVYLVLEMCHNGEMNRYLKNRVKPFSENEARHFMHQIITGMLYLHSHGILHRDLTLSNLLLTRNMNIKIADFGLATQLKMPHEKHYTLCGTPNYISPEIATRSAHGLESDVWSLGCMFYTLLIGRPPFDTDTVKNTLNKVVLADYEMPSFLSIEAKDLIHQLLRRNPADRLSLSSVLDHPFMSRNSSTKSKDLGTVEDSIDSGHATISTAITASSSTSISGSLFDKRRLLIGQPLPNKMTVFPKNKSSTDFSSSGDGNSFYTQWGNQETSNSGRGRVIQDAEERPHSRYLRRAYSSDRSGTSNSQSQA
Procedure: The protein was purified from clarified cell extracts after induction at 15° C. overnight using glutathione sepharose, gel permeation chromatography, and ion exchange (Resource Q). The resulting protein was dephosphorylated with lambda phosphatase (NEB cat# P0753), and resolved from the phosphatase using gluthione sepharose. The dephosphorylated GST-PLK4 was stored in aliquots at −80° C. until use.
PLK4 activity was measured using an indirect ELISA detection system. […] The colourimetric reaction was allowed to continue for 5 minutes, followed by addition of stop solution (0.5 N sulphuric acid), and quantified by detection at 450 nm with either a monochromatic or filter based plate reader (Molecular Devices M5 or Beckman DTX880, respectively).
Compounds were pre-incubated in the presence of enzyme for 15 minutes prior to addition of ATP and the activity remaining quantified using the above described activity assay. […] The IC50 value was determined using a non-linear 4 point logistic curve fit (XLfit4, IDBS) with the formula; (A+(B/(1+((x/C){grave over ( )}D)))), where A=background value, B=range, C=inflection point, D=curve fit parameter.

Row | SMILES | inhibition at 1 µM (Aurora A; 1 μM compound, 20 μM ATP) | GI50 [1] | GI50 [2] | GI50 [3] | GI50 [4] | also measured
1 | COc1ccc2c(c1)[C@]1(C[C@@H]1c1ccc3c(-c4ccc(N5CCN(C)CC5)nc4)n[nH]c3c1)C(=O)N2 (relative stereo) [Example A17, (1R*,2R*)-5′-Methoxy-2-(3-(6-(4-methylpiperazin-1-yl)pyridin-3-yl)-1H-indazol-6-yl)spiro[cyclopropane-1,3′-indolin]-2′-one] | < 50% | – | – | – | – | –
2 | O=C1Nc2ccccc2[C@@]12C[C@@H]2c1ccc2c(/C=C/c3ccc(CN4CCCC4)cc3)n[nH]c2c1 (racemic) [Example A60, (1R*,2S*)-(E)-2-(3-(4-(pyrolidin-1-ylmethyl)styryl)-1H-indazol-6-yl)spiro[cyclopropane-1,3′-indolin]-2′-one 2,2,2-trifluoroacetate] | > 50% | – | – | – | – | –
3 | COc1ccc2c(c1)[C@@]1(C[C@@H]1c1ccc3c(-c4ccc(N5CCN(C(C)C)CC5)cc4)n[nH]c3c1)C(=O)N2 (racemic) [Example A96, (1R*,2S*)-2-(3-(4-(4-isopropylpiperazin-1-yl)phenyl)-1H-indazol-6-yl)-5′-methoxyspiro[cyclopropane-1,3′-indolin]-2′-one] | < 50% | < 0.1 µM | < 0.1 µM | < 0.1 µM | < 0.1 µM | GI50 ([5]; HCC1954, 120 h): 1 to 10 µM
4 | CCN1CCN(c2ccc(/C=C/c3n[nH]c4cc([C@@H]5C[C@@]56C(=O)Nc5ccc(OC)cc56)ccc34)cc2)CC1 (racemic) [Example A188, (1R*,2S*)-(E)-2-(3-(4-(4-ethylpiperazin-1-yl)styryl)-1H-indazol-6-yl)-5′-methoxyspiro[cyclopropane-1,3′-indolin]-2′-one 2,2,2-trifluoroacetate] | > 50% | < 0.1 µM | < 0.1 µM | < 0.1 µM | < 0.1 µM | GI50 ([5]; 120 h): 0.1 to 1 µM
5 | COc1ccc2c(c1)[C@@]1(C[C@@H]1c1ccc3c(/C=C/c4cc(F)c(CN5CCOCC5)c(F)c4)n[nH]c3c1)C(=O)N2 (racemic) [Example A217, (1R*,2S*)-(E)-2-(3-(3,5-difluoro-4-(morpholinomethyl)styryl-1H-indazol-6-yl)-5′-methoxyspiro[cyclopropane-1,3′-indolin]-2′-one 2,2,2-trifluoroacetate] | > 50% | – | – | – | – | –
6 | O=C1Nc2ccccc2[C@]12C[C@H]2c1ccc2c(I)n[nH]c2c1 (relative stereo) [Example A9, (1R*,2S*)-2-(3-iodo-1H-indazol-6-yl)spiro[cyclopropane-1,3′-indolin]-2′-one] | – | – | – | – | – | IC50 (human PLK4): 0.1 to 1 µM
7 | COc1ccc2c(c1)[C@@]1(C[C@@H]1c1ccc3c(/C=C/c4ccc(CN5CCOCC5)cc4)n[nH]c3c1)C(=O)N2 (racemic) [Example A41, (1R*,2S*)-(E)-5′-methoxy-2-(3-(4-(morpholinomethyl)styryl)-1H-indazol-6-yl)spiro[cyclopropane-1,3′-indolin]-2′-one 2,2,2-trifluoroacetate] | > 50% | – | – | – | – | –
8 | COc1ccc2c(c1)[C@@]1(C[C@@H]1c1ccc3c(/C=C/c4csc(CN5CCOCC5)c4)n[nH]c3c1)C(=O)N2 (racemic) [Example A184, (1R*,2S*)-5′-methoxy-2-(3-((E)-2-(5-(morpholinomethyl)thiophen-3-yl)vinyl)-1H-indazol-6-yl)spiro[cyclopropane-1,3′-indolin]-2′-one 2,2,2-trifluoroacetate] | > 50% | 0.1 to 1 µM | < 0.1 µM | < 0.1 µM | < 0.1 µM | GI50 ([5]; 120 h): > 10 µM
9 | O=C1Nc2ccccc2[C@@]12C[C@@H]2c1ccc2c(/C=C/c3ccc(CN4CCCCC4)cc3)n[nH]c2c1 (racemic) [Example A57, (1R*,2S*)-(E)-2-(3-(4-(piperidin-1-ylmethyl)styryl)-1H-indazol-6-yl)spiro[cyclopropane-1,3′-indolin]-2′-one 2,2,2-trifluoroacetate] | > 50% | – | – | – | – | –
10 | COc1ccc2c(c1)[C@@]1(C[C@@H]1c1ccc3c(/C=C/c4ccc(CCN5CCOCC5)cc4)n[nH]c3c1)C(=O)N2 (racemic) [Example A178, (1R*,2S*)-(E)-5′-methoxy-2-(3-(4-(2-morpholinoethyl)styryl)-1H-indazol-6-yl)spiro[cyclopropane-1,3′-indolin]-2′-one 2,2,2-trifluoroacetate] | – | < 0.1 µM | < 0.1 µM | < 0.1 µM | < 0.1 µM | GI50 ([5]; HCC1954, 120 h): 0.1 to 1 µM
11 | NS(=O)(=O)c1cccc(-c2n[nH]c3cc([C@@H]4C[C@@]45C(=O)Nc4ccccc45)ccc23)c1 (racemic) [Example A130, 3-(6-((1R*,2S*)-2′-oxospiro[cyclopropane-1,3′-indoline]-2-yl)-1H-indazol-3-yl)benzenesulfonamide] | – | 1 to 10 µM | > 10 µM | > 10 µM | 1 to 10 µM | GI50 ([5]; 120 h): > 10 µM
12 | Cc1ccc2c(c1)[C@@]1(C[C@@H]1c1ccc3c(/C=C/c4ccc(CN5CCOCC5)cc4)n[nH]c3c1)C(=O)N2 (racemic) [Example A196, (1R*,2S*)-(E)-5′-methyl-2-(3-(4-(morpholinomethyl)styryl)-1H-indazol-6-yl)spiro[cyclopropane-1,3′-indolin]-2′-one 2,2,2-trifluoroacetate] | – | – | – | – | – | inhibition at 1 µM (Aurora A): > 50%
13 | O=C1Nc2ncc(Br)cc2[C@@]12C[C@@H]2c1ccc2c(/C=C/c3cccnc3)n[nH]c2c1 (racemic) [Example A27, (1R*,2S*)-5′-bromo-2-(3-((E)-2-(pyridin-3-yl)vinyl)-1H-indazol-6-yl)spiro[cyclopropane-1,3′-pyrrolo[2,3-b]pyridin]-2′(1′H)-one] | – | 1 to 10 µM | 1 to 10 µM | 1 to 10 µM | 0.1 to 1 µM | GI50 ([5]; HCC1954, 120 h): 1 to 10 µM
14 | CN1CCN(c2ccc(-c3n[nH]c4cc([C@@H]5C[C@@]56C(=O)Nc5ccc(C(F)(F)F)cc56)ccc34)cc2)CC1 (racemic) [Example A170, (1R*,2S*)-2-(3-(4-(4-methylpiperazin-1-yl)phenyl)-1H-indazol-6-yl)-5′-(trifluoromethyl)spiro[cyclopropane-1,3′-indolin]-2′-one 2,2,2-trifluoroacetate] | – | – | – | – | – | IC50 (human PLK4; 15 μM ATP, read-out: PLK4 IC50 Ranges): 0.1 to 1 µM
